Reference: patent US8961873B2, “Antinfection protecting healthcare workers to prevent spreading of communicable and nosocomial infections” (priority 2011, dated 2015)

Details: the rest remains in inactive suspension

amount going into solution in water: 16 ppm
SMILES: [Ca+2].[F-].[F-] [CaF2, Calcium-Fluoride]
